Molecules are shown by their SMILES. Some results are limits rather than exact numbers.

Data set [1] relates to Hepatitis B virus. Kind of data set: Antiviral activity against Hepatitis B virus infected human HepG2.2.15 cells assessed as HBeAg secretion at 200 […] after 9 days by ELISA. It is filed as functional. The note with it: HepG2 2.2.15, 216 h. On the technique in general: In an ELISA, binding on a coated surface is turned into a signal by an enzyme label.
The test system of data set [2] is Hepatitis B virus. Put plainly: Antiviral activity against Hepatitis B virus infected human HepG2.2.15 cells assessed as HBeAg secretion at 50 […] after 9 days by ELISA. It is filed as functional. The note with it: HepG2 2.2.15, 216 h.
In data set [3] the test system is Hepatitis B virus. Kind of data set: Antiviral activity against Hepatitis B virus infected human HepG2.2.15 cells assessed as HBsAg secretion at 50 […] after 9 days by ELISA. It is filed as functional. Particulars: HepG2 2.2.15, 216 h.
For data set [4], the system named is Hepatitis B virus. Put plainly: Antiviral activity against Hepatitis B virus infected human HepG2.2.15 cells assessed as HBsAg secretion at 25 […] after 9 days by ELISA. It is filed as functional. Particulars: HepG2 2.2.15, 216 h.
Data set [5] has as its system Hepatitis B virus. Put plainly: Antiviral activity against Hepatitis B virus infected human HepG2.2.15 cells assessed as HBeAg secretion at 25 […] after 9 days by ELISA. It is filed as functional. Particulars: HepG2 2.2.15, 216 h.
Data set [6] relates to Hepatitis B virus. Kind of data set: Antiviral activity against Hepatitis B virus infected human HepG2.2.15 cells assessed as HBsAg secretion at 200 […] after 9 days by ELISA. It is filed as functional. The note with it: HepG2 2.2.15, 216 h.
Data set [7] deals with Hepatitis B virus. Kind of data set: Antiviral activity against Hepatitis B virus infected human HepG2.2.15 cells assessed as HBsAg secretion at 100 […] after 9 days by ELISA. It is filed as functional. The note with it: HepG2 2.2.15, 216 h.
The test system of data set [8] is Hepatitis B virus. Put plainly: Antiviral activity against Hepatitis B virus infected human HepG2.2.15 cells assessed as HBeAg secretion at 100 […] after 9 days by ELISA. It is filed as functional. The note with it: HepG2 2.2.15, 216 h.
Data set [9] can be described thus: Cytotoxicity against human HepG2(2.2.15) cells at 100 ug/mL by MTT assay. It is filed as cell-based. The note with it: read-out: GI. For orientation: Formazan colour is commonly taken as a measure of viable cells.
Data set [10] is described as follows: Cytotoxicity against human HepG2(2.2.15) cells at 200 ug/mL by MTT assay. It is filed as cell-based. The note with it: read-out: GI.
Data set [11] in a line: Cytotoxicity against human HepG2(2.2.15) cells at 50 ug/mL by MTT assay. The note with it: read-out: GI. It is filed as cell-based.

Turning to `COc1cc2c(c(O)c1OC)-c1c(cc(OC)c(OC)c1OC)C[C@](C)(O)[C@@H](C)C2` [GOMISIN H], the values for the inhibition in vivo at 0.2 mg/kg in the data set on Hepatitis B virus [1] and in the data set on Hepatitis B virus [6] were 1.6% and 11.6%, respectively. For the same compound, the inhibition in vivo at 0.05 mg/kg with Hepatitis B virus [2] and in the data set with Hepatitis B virus [3] was 0% in each case. Also, the inhibition in vivo at 0.025 mg/kg in the data set with Hepatitis B virus [4] and with Hepatitis B virus [5] was 0% in each case. In addition, the inhibition in vivo (usually how much of the control response was suppressed) at 0.1 mg/kg in the data set with Hepatitis B virus [7] amounted to 3.7%; in the data set with Hepatitis B virus [8], 0%.
In the case of `Nc1ccn([C@@H]2CS[C@H](CO)O2)c(=O)n1` [LAMIVUDINE], the inhibition in vivo at 0.2 mg/kg in the data set with Hepatitis B virus [1] is 34.5%; with Hepatitis B virus [6], 28.6%.
Turning to `COc1cc2c(c(OC)c1OC)-c1c(cc(OC)c(OC)c1OC)C[C@H](C)[C@H](C)C2` [SCHISANDRIN A], the inhibition in vivo at 0.2 mg/kg was 15.9% with Hepatitis B virus [1] and 50.3% in the data set with Hepatitis B virus [6]. Further, the inhibition in vivo at 0.05 mg/kg in the data set on Hepatitis B virus [2] came out at 0%; with Hepatitis B virus [3] it was 8.8%. The inhibition in vivo at 0.025 mg/kg in the data set with Hepatitis B virus [4] and with Hepatitis B virus [5] was 0% in each case. In addition, the inhibition in vivo at 0.1 mg/kg with Hepatitis B virus [7] was 30.9%; in the data set with Hepatitis B virus [8], 11.9%.
As to `COc1cc2c(c(O)c1OC)-c1c(cc(OC)c(OC)c1OC)C[C@@H](C)[C@@H](C)C2` [SCHISANHENOL], the figures for the inhibition in vivo at 0.025 mg/kg with Hepatitis B virus [4] and with Hepatitis B virus [5] were 45% and 0%, respectively. Also, the inhibition at 100 ug/mL in data set [9] is not below 25%. Besides, the inhibition at 200 ug/mL in [10] was not below 25%. The inhibition at 50 ug/mL in data set [11] was not below 25%.
On to `C/C=C(/C)C(=O)O[C@H]1c2cc(OC)c(OC)c(OC)c2-c2c(cc3c(c2O)OCO3)C[C@H](C)[C@@]1(C)O` [SCHISANWILSONIN A], for which the inhibition in vivo at 0.05 mg/kg turned out to be 14% in the data set on Hepatitis B virus [2] and 5.3% with Hepatitis B virus [3]. For the same compound, the inhibition in vivo at 0.025 mg/kg with Hepatitis B virus [4] and in the data set on Hepatitis B virus [5] was 0% in each case. In data set [9], the inhibition at 100 ug/mL was not below 25%. Further, the inhibition at 200 ug/mL in data set [10] is not below 25%.
`C/C=C(\C)C(=O)O[C@H]1c2cc(OC)c(OC)c(OC)c2-c2c(cc3c(c2O)OCO3)C[C@H](C)[C@@]1(C)O` [SCHISANWILSONIN B]: the inhibition in vivo at 0.05 mg/kg worked out at 9.2% with Hepatitis B virus [2] and 0% in the data set with Hepatitis B virus [3]. The inhibition in vivo at 0.025 mg/kg in the data set with Hepatitis B virus [4] worked out at 0%; with Hepatitis B virus [5], 0.6%. In [10], the inhibition at 200 ug/mL was not below 25%. The inhibition in vivo at 0.1 mg/kg is 7.4% with Hepatitis B virus [7] and 18.1% with Hepatitis B virus [8].
Take `COc1cc2c(c(OC)c1OC)-c1c(cc3c(c1O)OCO3)C[C@H](C)[C@@](C)(O)[C@H]2OC(=O)c1ccccc1` [SCHISANWILSONIN C]: the inhibition in vivo at 0.05 mg/kg with Hepatitis B virus [2] amounted to 11.7%; in the data set on Hepatitis B virus [3] it was 0%. The inhibition in vivo at 0.025 mg/kg was determined as 0% with Hepatitis B virus [4] and 11.6% with Hepatitis B virus [5]. Further, the inhibition at 100 ug/mL in [9] was not below 25%. In data set [10], the inhibition at 200 ug/mL is not below 25%.
In the case of `C/C=C(\C)C(=O)O[C@H]1c2cc(OC)c(OC)c(OC)c2-c2c(cc(O)c(OC)c2O)C[C@H](C)[C@@]1(C)O` [SCHISANWILSONIN D], the inhibition in vivo at 0.05 mg/kg with Hepatitis B virus [2] amounted to 16.5%; in the data set on Hepatitis B virus [3], 19.5%. For the same compound, the inhibition in vivo at 0.025 mg/kg with Hepatitis B virus [4] worked out at 12.5%; in the data set with Hepatitis B virus [5], 6.2%. In [10], the inhibition at 200 ug/mL is not below 25%. Moreover, the results for the inhibition in vivo at 0.1 mg/kg in the data set with Hepatitis B virus [7] and with Hepatitis B virus [8] were 28.8% and 21.6%, respectively.
Take `COc1cc2c(c(OC)c1OC)-c1c(cc3c(c1O)OCO3)C[C@H](C)[C@@](C)(O)[C@H]2OC(=O)C(C)C` [SCHISANWILSONIN E]: the inhibition in vivo at 0.05 mg/kg in the data set on Hepatitis B virus [2] and in the data set on Hepatitis B virus [3] was 0% throughout. The inhibition in vivo at 0.025 mg/kg with Hepatitis B virus [4] and in the data set with Hepatitis B virus [5] was 0% in each case. Moreover, the inhibition at 200 ug/mL in data set [10] was not below 25%. Moreover, the inhibition in vivo at 0.1 mg/kg turned out to be 0% in the data set with Hepatitis B virus [7] and 2% with Hepatitis B virus [8].
With `COc1cc2c(c(OC)c1OC)-c1c(cc3c(c1O)OCO3)C[C@H](C)[C@@](C)(O)[C@H]2OC(C)=O` [SCHISANWILSONIN F], the inhibition in vivo at 0.05 mg/kg in the data set on Hepatitis B virus [2] was 6.7%; with Hepatitis B virus [3], 0%. Moreover, the values for the inhibition in vivo at 0.025 mg/kg in the data set on Hepatitis B virus [4] and with Hepatitis B virus [5] were 0% and 5.5%, respectively. Further, in [10], the inhibition at 200 ug/mL was not below 25%. The results for the inhibition in vivo at 0.1 mg/kg in the data set on Hepatitis B virus [7] and in the data set with Hepatitis B virus [8] were 0% and 9.3%, respectively.
As for `COc1cc2c(c(OC)c1OC)-c1c(cc(O)c(OC)c1O)C[C@H](C)[C@@](C)(O)[C@H]2OC(=O)c1ccccc1` [SCHISANWILSONIN G], the inhibition in vivo at 0.2 mg/kg was found to be 5.6% in the data set on Hepatitis B virus [1] and 0% in the data set on Hepatitis B virus [6]. The results for the inhibition in vivo at 0.05 mg/kg with Hepatitis B virus [2] and with Hepatitis B virus [3] were 1.6% and 0%, respectively. In addition, the inhibition in vivo at 0.025 mg/kg with Hepatitis B virus [4] and in the data set on Hepatitis B virus [5] was 0% throughout. Moreover, the results for the inhibition in vivo at 0.1 mg/kg in the data set on Hepatitis B virus [7] and in the data set on Hepatitis B virus [8] were 0% and 3.4%, respectively.

(Values after ChEMBL document CHEMBL1155330, “Schisanwilsonins A-G and related anti-HBV lignans from the fruits of Schisandra wilsoniana” (Bioorg Med Chem Lett, 2009).)
